Results: US20250243196A1, “CITRON KINASE INHIBITORS” (The Cleveland Clinic Foundation, priority 2021, published 2025)

Legend:
Experiment in all cases: KinaseProfiler panel
Format in all cases: biochemical
Details in all cases: activity remaining
EphB4(h) = EphB4(h) (Homo sapiens (Human), UniProt P54760); parameters: dose or concentration left out as unconfirmed
TAO1(h) = TAO1(h) (Homo sapiens (Human), UniProt Q7L7X3); parameters: dose or concentration left out as unconfirmed
WNK4(h) = WNK4(h) (Homo sapiens (Human), UniProt Q96J92); parameters: dose or concentration left out as unconfirmed
Flt4(h) = Flt4(h) (Homo sapiens (Human), UniProt P35916); parameters: dose or concentration left out as unconfirmed
PTK5(h) = PTK5(h) (Homo sapiens (Human), UniProt P42685); parameters: dose or concentration left out as unconfirmed
Chain of PTK5(h) (P42685 whole entry): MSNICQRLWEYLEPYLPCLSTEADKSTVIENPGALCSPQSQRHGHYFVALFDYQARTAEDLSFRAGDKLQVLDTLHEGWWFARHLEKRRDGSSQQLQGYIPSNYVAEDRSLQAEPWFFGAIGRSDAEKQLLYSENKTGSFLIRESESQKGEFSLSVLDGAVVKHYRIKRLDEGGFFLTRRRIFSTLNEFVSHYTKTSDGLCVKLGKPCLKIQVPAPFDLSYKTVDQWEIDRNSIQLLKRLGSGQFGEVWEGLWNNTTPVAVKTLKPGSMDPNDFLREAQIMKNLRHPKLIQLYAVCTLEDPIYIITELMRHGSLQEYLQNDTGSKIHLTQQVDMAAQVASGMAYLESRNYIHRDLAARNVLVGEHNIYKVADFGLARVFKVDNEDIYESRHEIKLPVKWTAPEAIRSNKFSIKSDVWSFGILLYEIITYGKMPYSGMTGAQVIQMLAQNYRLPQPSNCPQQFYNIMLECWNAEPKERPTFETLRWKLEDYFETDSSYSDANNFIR

TTBK1(h) = TTBK1(h) (Homo sapiens (Human), UniProt Q5TCY1); parameters: dose or concentration left out as unconfirmed
MAPKAP-K3(h) = MAPKAP-K3(h) (Homo sapiens (Human), UniProt Q16644); parameters: dose or concentration left out as unconfirmed
PRK1(h) = PRK1(h) (Homo sapiens (Human), UniProt Q16512); parameters: dose or concentration left out as unconfirmed
ZAP-70(h) = ZAP-70(h) (Homo sapiens (Human), UniProt P43403); parameters: dose or concentration left out as unconfirmed
Chain of ZAP-70(h) (P43403 whole entry): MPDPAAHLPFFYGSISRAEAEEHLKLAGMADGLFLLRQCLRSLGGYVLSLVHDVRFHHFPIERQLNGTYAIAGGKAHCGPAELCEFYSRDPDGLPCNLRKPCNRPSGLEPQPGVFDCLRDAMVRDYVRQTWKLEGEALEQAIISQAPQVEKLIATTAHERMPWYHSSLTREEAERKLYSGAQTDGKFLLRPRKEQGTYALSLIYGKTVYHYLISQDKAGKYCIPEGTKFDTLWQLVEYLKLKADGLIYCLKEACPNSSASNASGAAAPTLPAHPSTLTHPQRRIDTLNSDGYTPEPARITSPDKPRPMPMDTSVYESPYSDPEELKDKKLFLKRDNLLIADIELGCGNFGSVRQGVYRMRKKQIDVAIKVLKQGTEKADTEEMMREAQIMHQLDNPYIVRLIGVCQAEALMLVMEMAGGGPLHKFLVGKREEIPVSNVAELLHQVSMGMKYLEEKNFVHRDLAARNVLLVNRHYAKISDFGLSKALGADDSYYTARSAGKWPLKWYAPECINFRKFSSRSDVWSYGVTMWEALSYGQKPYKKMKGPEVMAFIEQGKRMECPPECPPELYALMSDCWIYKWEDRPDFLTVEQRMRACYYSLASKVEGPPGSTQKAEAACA

MYO3B(h) = MYO3B(h) (Homo sapiens (Human), UniProt Q8WXR4); parameters: dose or concentration left out as unconfirmed
Aurora-C(h) = Aurora-C(h) (Homo sapiens (Human), UniProt Q9UQB9)
LOK(h) = LOK(h) (Homo sapiens (Human), UniProt O94804); parameters: dose or concentration left out as unconfirmed
CaMKIV(h) = CaMKIV(h) (Homo sapiens (Human), UniProt Q16566); parameters: dose or concentration left out as unconfirmed
Chain of CaMKIV(h) (Q16566 whole entry): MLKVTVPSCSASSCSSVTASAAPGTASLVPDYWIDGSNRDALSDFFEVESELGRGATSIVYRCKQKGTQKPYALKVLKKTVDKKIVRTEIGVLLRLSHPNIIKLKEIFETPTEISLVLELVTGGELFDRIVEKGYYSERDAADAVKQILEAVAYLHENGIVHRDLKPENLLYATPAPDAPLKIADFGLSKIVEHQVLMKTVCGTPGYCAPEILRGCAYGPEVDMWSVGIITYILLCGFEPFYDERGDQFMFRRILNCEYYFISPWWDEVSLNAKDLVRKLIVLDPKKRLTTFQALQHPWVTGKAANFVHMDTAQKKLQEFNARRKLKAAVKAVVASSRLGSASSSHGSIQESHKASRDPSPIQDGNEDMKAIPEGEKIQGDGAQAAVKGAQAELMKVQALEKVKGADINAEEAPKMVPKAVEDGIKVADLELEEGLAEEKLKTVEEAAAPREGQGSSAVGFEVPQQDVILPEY

STK32C(h) = STK32C(h) (Homo sapiens (Human), UniProt Q86UX6)
DCAMKL2(h) = DCAMKL2(h) (Homo sapiens (Human), UniProt Q8N568); parameters: dose or concentration left out as unconfirmed
CaMKIIα(h) = CaMKIIα(h) (Homo sapiens (Human), UniProt Q9UQM7)
CLIK1(h) = CLIK1(h) (Homo sapiens (Human), UniProt Q8TDR2); parameters: dose or concentration left out as unconfirmed
AMPKα1(h) = AMPKα1(h) (Homo sapiens (Human), UniProt Q13131); parameters: dose or concentration left out as unconfirmed
TYK2(h) = TYK2(h) (Homo sapiens (Human), UniProt P29597); parameters: dose or concentration left out as unconfirmed
MST2(h) = MST2(h) (Homo sapiens (Human), UniProt Q13188); parameters: dose or concentration left out as unconfirmed
[1] = biological target: PI3 Kinase (p110b/p85a)(h) (Homo sapiens (Human), UniProt P42338); parameters: dose or concentration left out as unconfirmed
Arg(h) = Arg(h) (Homo sapiens (Human), UniProt P42684); parameters: dose or concentration left out as unconfirmed
DYRK1B(h) = DYRK1B(h) (Homo sapiens (Human), UniProt Q9Y463); parameters: dose or concentration left out as unconfirmed
Chain of DYRK1B(h) (Q9Y463 whole entry): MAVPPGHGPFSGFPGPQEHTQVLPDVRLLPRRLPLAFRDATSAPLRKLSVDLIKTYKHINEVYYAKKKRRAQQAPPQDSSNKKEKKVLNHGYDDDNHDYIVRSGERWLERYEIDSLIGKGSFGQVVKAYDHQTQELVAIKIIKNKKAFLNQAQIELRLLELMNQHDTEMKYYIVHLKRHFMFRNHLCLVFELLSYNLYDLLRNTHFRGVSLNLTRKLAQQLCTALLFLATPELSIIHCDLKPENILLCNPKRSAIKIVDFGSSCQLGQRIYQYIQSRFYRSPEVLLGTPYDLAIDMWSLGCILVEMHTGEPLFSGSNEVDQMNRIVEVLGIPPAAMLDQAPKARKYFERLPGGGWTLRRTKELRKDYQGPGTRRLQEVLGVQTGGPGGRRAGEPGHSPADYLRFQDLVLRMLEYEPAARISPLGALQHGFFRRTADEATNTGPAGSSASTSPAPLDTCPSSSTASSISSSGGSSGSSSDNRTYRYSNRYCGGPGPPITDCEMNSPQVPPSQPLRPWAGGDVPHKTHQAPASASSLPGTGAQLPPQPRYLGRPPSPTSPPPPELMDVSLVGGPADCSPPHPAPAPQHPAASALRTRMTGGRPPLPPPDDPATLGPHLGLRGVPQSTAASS

CDK3/cyclinE(h) = CDK3/cyclinE(h) (Homo sapiens (Human), UniProt Q00526); parameters: dose or concentration left out as unconfirmed
Fes(h) = Fes(h) (Homo sapiens (Human), UniProt P07332); parameters: dose or concentration left out as unconfirmed
CaMKIγ(h) = CaMKIγ(h) (Homo sapiens (Human), UniProt Q96NX5); parameters: dose or concentration left out as unconfirmed
CK1δ(h) = CK1δ(h) (Homo sapiens (Human), UniProt P48730); parameters: dose or concentration left out as unconfirmed
ARK5(h) = ARK5(h) (Homo sapiens (Human), UniProt O60285); parameters: dose or concentration left out as unconfirmed
Chain of ARK5(h) (O60285 whole entry): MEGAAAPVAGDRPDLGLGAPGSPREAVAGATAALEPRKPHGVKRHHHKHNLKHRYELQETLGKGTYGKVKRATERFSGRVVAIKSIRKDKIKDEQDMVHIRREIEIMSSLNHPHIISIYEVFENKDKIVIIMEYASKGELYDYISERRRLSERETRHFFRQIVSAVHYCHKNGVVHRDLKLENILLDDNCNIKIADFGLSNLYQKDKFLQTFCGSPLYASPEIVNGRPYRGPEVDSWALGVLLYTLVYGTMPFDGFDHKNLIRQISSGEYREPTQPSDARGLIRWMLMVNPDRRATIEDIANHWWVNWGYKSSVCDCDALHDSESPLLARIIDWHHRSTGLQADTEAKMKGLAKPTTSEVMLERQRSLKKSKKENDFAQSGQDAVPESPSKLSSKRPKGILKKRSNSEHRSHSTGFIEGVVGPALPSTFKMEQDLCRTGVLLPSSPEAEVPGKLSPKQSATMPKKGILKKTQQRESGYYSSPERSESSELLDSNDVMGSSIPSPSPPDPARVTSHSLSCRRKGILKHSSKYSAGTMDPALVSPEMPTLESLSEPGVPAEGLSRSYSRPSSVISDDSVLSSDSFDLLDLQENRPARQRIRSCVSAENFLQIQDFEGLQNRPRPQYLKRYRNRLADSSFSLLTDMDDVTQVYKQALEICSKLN

ZAK(h) = ZAK(h) (Homo sapiens (Human), UniProt Q9NYL2); parameters: dose or concentration left out as unconfirmed
FAK(h) = FAK(h) (Homo sapiens (Human), UniProt Q05397); parameters: dose or concentration left out as unconfirmed
Chain of FAK(h) (Q05397 whole entry): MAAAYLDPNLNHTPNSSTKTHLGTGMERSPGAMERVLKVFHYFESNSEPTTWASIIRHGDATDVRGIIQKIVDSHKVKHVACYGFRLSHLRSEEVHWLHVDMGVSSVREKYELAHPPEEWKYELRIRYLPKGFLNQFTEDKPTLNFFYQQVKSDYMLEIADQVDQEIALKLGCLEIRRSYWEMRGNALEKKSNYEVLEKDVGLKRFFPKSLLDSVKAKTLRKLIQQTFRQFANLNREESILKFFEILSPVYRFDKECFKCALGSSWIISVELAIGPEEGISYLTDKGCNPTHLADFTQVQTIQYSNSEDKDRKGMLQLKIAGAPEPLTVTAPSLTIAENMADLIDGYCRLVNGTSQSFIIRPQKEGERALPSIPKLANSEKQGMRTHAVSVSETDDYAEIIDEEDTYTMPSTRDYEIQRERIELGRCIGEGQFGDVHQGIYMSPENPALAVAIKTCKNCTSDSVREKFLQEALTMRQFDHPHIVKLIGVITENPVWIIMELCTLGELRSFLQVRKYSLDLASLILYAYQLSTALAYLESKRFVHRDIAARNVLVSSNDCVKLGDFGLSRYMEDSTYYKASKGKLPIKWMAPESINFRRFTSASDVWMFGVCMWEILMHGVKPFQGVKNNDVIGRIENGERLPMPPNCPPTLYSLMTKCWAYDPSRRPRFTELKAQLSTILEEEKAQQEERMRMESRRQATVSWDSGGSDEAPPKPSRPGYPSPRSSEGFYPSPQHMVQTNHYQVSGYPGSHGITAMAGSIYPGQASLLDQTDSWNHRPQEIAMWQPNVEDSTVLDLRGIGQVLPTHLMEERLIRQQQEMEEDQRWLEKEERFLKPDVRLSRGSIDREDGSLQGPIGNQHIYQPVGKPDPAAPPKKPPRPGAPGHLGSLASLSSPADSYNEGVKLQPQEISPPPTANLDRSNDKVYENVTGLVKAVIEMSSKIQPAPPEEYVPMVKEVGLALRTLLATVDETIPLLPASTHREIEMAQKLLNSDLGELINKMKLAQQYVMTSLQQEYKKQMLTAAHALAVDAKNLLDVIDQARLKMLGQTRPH

GRK2(h) = GRK2(h) (Homo sapiens (Human), UniProt P25098); parameters: dose or concentration left out as unconfirmed

Chain of EphB4(h) (P54760 16-987): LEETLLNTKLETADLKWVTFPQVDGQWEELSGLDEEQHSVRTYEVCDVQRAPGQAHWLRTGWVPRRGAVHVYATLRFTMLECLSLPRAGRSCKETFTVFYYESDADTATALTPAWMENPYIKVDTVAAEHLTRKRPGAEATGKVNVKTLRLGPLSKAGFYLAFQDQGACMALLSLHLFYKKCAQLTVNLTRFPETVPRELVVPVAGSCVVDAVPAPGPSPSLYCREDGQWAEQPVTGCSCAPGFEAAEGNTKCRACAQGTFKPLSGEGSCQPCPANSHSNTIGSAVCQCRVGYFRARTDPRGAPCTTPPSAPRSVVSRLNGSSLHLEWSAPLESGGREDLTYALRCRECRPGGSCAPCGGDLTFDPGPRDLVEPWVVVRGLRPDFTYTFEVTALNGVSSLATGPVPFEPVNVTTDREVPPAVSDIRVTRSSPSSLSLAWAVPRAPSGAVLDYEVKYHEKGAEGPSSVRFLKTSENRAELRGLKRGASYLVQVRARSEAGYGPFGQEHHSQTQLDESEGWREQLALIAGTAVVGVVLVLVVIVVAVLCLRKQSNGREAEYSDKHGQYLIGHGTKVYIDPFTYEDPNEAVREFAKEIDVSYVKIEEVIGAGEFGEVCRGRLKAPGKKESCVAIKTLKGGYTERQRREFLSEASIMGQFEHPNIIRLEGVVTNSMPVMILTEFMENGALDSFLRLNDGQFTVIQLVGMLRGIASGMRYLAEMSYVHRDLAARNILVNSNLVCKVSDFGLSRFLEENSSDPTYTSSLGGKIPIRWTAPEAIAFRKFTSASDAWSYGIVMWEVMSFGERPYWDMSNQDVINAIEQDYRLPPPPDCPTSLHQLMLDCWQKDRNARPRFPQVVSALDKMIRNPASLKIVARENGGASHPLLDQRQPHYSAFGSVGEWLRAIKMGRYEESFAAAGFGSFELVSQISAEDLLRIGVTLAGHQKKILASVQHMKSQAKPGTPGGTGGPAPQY

## Cc1cc2c(-c3ccc(NC(=O)[C@H](N)CC(C)(C)C)cc3C)ccnc2[nH]1 [Compound F-90, (2R)-2-Amino-4,4-dimethyl-N-[3-methyl-4-(2-methyl-1H-pyrrolo[2,3-b]pyridin-4-yl)phenyl]pentanamide]
EphB4(h)
  % Activity: 107%
TAO1(h)
  % Activity: 83%
WNK4(h)
  % Activity: 97%
Flt4(h)
  % Activity: 96%
PTK5(h)
  % Activity: 90%
TTBK1(h)
  % Activity: 96%
MAPKAP-K3(h)
  % Activity: 125%
PRK1(h)
  % Activity: 91%
ZAP-70(h)
  % Activity: 71%
MYO3B(h)
  % Activity: 79%
Aurora-C(h)
  % Activity: 94%
LOK(h)
  % Activity: 96%
CaMKIV(h)
  % Activity: 99%
STK32C(h)
  % Activity: 85%
DCAMKL2(h)
  % Activity: 104%
CaMKIIα(h)
  % Activity: 88%
CLIK1(h)
  % Activity: 97%
AMPKα1(h)
  % Activity: 120%
TYK2(h)
  % Activity: 103%
MST2(h)
  % Activity: 106%
[1]
  % Activity: 102%
Arg(h)
  % Activity: 72%
DYRK1B(h)
  % Activity: 108%
CDK3/cyclinE(h)
  % Activity: 102%
Fes(h)
  % Activity: 111%
CaMKIγ(h)
  % Activity: 110%
CK1δ(h)
  % Activity: 96%
ARK5(h)
  % Activity: 85%
ZAK(h)
  % Activity: 83%
FAK(h)
  % Activity: 96%
GRK2(h)
  % Activity: 95%
